Measurements from patent US9624214B2, “Amino-substituted imidazo[1,2-a]pyridinecarboxamides and their use” (BAYER PHARMA AKTIENGESELLSCHAFT, priority 2012, dated 2017).

biological target: T1, recombinant guanylate cyclase reporter cell line (Rattus norvegicus, UniProt P19686+P20595); experiment: B-2. Action on recombinant guanylate cyclase reporter cell line; assay type: cell-based; details: MEC = minimal effective concentration; in some cases mean values from individual determinations
T1 construct: expressed in transfected cells
T1 sequence (P20595 1-619): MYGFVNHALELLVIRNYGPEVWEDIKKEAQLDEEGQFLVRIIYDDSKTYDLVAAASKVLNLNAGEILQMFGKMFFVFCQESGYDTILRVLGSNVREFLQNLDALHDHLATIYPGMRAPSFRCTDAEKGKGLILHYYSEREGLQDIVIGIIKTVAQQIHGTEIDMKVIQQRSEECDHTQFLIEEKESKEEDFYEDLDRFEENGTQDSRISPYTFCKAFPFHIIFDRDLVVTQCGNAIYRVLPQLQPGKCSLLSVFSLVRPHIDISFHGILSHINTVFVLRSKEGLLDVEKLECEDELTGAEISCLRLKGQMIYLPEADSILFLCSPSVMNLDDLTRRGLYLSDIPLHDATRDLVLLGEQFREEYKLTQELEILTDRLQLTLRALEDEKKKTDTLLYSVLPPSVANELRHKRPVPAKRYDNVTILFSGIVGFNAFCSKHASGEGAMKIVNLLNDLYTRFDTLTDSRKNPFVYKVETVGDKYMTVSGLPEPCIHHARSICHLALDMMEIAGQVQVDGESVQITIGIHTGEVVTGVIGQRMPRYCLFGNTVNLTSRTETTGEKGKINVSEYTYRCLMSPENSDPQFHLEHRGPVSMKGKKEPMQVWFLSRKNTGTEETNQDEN
T1 sequence (P19686 1-690): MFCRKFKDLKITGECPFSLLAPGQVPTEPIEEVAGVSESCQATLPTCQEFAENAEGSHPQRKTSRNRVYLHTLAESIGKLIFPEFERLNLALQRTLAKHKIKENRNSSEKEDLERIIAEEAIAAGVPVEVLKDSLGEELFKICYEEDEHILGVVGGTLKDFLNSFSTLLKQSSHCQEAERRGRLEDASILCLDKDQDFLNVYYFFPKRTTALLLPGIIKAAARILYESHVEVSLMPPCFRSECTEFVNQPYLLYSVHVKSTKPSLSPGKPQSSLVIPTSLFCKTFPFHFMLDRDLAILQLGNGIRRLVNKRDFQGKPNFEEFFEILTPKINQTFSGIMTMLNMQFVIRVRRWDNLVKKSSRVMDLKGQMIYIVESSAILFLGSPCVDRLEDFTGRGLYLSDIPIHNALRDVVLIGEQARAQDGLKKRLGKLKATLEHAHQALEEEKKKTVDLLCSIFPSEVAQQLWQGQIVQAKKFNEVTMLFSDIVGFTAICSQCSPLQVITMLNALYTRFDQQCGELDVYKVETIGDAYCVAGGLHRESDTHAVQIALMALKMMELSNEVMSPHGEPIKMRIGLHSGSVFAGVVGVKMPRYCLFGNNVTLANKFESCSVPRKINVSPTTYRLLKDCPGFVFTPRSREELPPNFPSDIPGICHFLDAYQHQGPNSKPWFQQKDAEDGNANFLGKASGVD
How it was run: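 Compounds are tested on whole cells carrying a guanylate cyclase reporter construct. The lowest concentration giving an effect is recorded as the MEC.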

Structure (SMILES) | MEC
Cc1nc2c(OCc3c(F)cccc3F)cccn2c1C(=O)NCC(C)(C)N [Example 72, N-(2-Amino-2-methylpropyl)-8-[(2,6-difluorobenzyl)oxy]-2-methylimidazo[1,2-a]pyridine-3-carboxamide] | 0.30 µM
Cc1nc2c(OCc3c(F)cccc3F)cc(Cl)cn2c1C(=O)NCC(C)(C)N [Example 73, N-(2-Amino-2-methylpropyl)-6-chloro-8-[(2,6-difluorobenzyl)oxy]-2-methylimidazo[1,2-a]-pyridine-3-carboxamide] | 0.30 µM
Cc1nc2c(OCc3c(F)cccc3F)cccn2c1C(=O)NC1CC(C)(C)NC(C)(C)C1 [Example 82, 8-[(2,6-Difluorobenzyl)oxy]-2-methyl-N-(2,2,6,6-tetramethylpiperidin-4-yl)imidazo[1,2-a]-pyridine-3-carboxamide] | 0.20 µM
Cc1nc2c(OCc3c(F)cccc3F)cccn2c1C(=O)NC1CC(C)(C)N(C)C(C)(C)C1 [Example 83, 8-[(2,6-difluorobenzyl)oxy]-2-methyl-N-(1,2,2,6,6-pentamethylpiperidin-4-yl)imidazo[1,2-a]pyridine-3-carboxamide] | 0.10 µM
Cc1nc2c(OCc3c(F)cccc3F)cccn2c1C(=O)NCCN(C)C [Example 86, 8-[(2,6-difluorobenzyl)oxy]-N-[2-(dimethyl-amino)ethyl]-2-methylimidazo[1,2-a]pyridine-3-carboxamide] | 2.00 µM
Cc1nc2c(OCc3c(F)cccc3F)cccn2c1C(=O)NCCCN(C)C [Example 87, 8-[(2,6-difluorobenzyl)oxy]-N-[3-(dimethyl-amino)propyl]-2-methylimidazo[1,2-a]-pyridine-3-carboxamide] | 1.00 µM
Cc1nc2c(OCc3c(F)cccc3F)cccn2c1C(=O)NCCN(C(C)C)C(C)C [Example 88, 8-[(2,6-difluorobenzyl)oxy]-N-[2-(diisopropyl-amino)ethyl]-2-methylimidazo[1,2-a]pyridine-3-carboxamide] | 1.00 µM
Cc1nc2c(OCc3c(F)cccc3F)cccn2c1C(=O)NCCN1CCOCC1 [Example 89, 8-[(2,6-difluorobenzyl)oxy]-2-methyl-N-[2-(morpholin-4-yl)ethyl]imidazo[1,2-a]pyridine-3-carboxamide] | 0.65 µM
Cc1nc2c(OCc3c(F)cccc3F)cccn2c1C(=O)NC1CC2CCCC(C1)N2C (stereo not drawn) [Example 90, 8-[(2,6-difluorobenzyl)oxy]-2-methyl-N-(9-methyl-9-azabicyclo[3.3.1]non-3-yl)imidazo[1,2-a]pyridine-3-carboxamide] | 0.10 µM
Cc1nc2c(OCc3c(F)cccc3F)cccn2c1C(=O)NC1CC2CCC(C1)N2C (stereo not drawn) [Example 91, 8-[(2,6-difluorobenzyl)oxy]-2-methyl-N-(8-methyl-8-azabicyclo[3.2.1]oct-3-yl)imidazo[1,2-a]pyridine-3-carboxamide] | 1.00 µM
Cc1nc2c(OCc3c(F)cccc3F)cccn2c1C(=O)NC1CN2CCC1CC2 (stereo not drawn) [Example 92, N-(1-azabicyclo[2.2.2]oct-3-yl)-8-[(2,6-difluorobenzyl)oxy]-2-methylimidazo[1,2-a]-pyridine-3-carboxamide] | 0.30 µM
Cc1cc(OCc2c(F)cccc2F)c2nc(C)c(C(=O)NCC(C)(C)NCC(F)(F)F)n2c1 [Example 94, 8-[(2,6-Difluorobenzyl)oxy]-2,6-dimethyl-N-{2-methyl-2-[(2,2,2-trifluoroethyl)amino]propyl}-imidazo[1,2-a]pyridine-3-carboxamide] | 0.30 µM
Cc1nc2c(OCc3c(F)cccc3F)cccn2c1C(=O)NCC(C)(C)CN [Example 103, N-(3-amino-2,2-dimethylpropyl)-8-[(2,6-difluorobenzyl)oxy]-2-methylimidazo[1,2-a]-pyridine-3-carboxamide] | 3.00 µM
Cc1nc2c(OCc3c(F)cccc3F)cc(Cl)cn2c1C(=O)NCCC(C)(C)N [Example 104, N-(3-Amino-3-methylbutyl)-6-chloro-8-[(2,6-difluorobenzyl)oxy]-2-methylimidazo[1,2-a]-pyridine-3-carboxamide] | 0.30 µM
Cc1cc(OCc2c(F)cccc2F)c2nc(C)c(C(=O)NCCC(C)(C)N)n2c1 [Example 114, N-(3-amino-3-methylbutyl)-8-[(2,6-difluorobenzyl)oxy]-2,6-dimethylimidazo[1,2-a]-pyridine-3-carboxamide] | 0.30 µM
Cc1cc(OCc2c(F)cccc2F)c2nc(C)c(C(=O)NC[C@@H]3CCCN3)n2c1 [Example 115, 8-[(2,6-difluorobenzyl)oxy]-2,6-dimethyl-N-[(2S)-pyrrolidin-2-ylmethyl]imidazo[1,2-a]-pyridine-3-carboxamide] | 1.00 µM
Cc1cc(OCc2c(F)cccc2F)c2nc(C)c(C(=O)NC[C@H]3CCCN3)n2c1 [Example 116, 8-[(2,6-difluorobenzyl)oxy]-2,6-dimethyl-N-[(2R)-pyrrolidin-2-ylmethyl]imidazo[1,2-a]-pyridine-3-carboxamide] | 3.00 µM
Cc1nc2c(OCc3c(F)cccc3F)cccn2c1C(=O)NCCC(C)(C)N [Example 117, N-(3-amino-3-methylbutyl)-8-[(2,6-difluorobenzyl)oxy]-2-methylimidazo[1,2-a]-pyridine-3-carboxamide] | 1.00 µM

Further lines, results first:

MEC | Structure (SMILES)
1.00 µM | Cc1nc2c(OCc3c(F)cccc3F)cccn2c1C(=O)NCCNc1ccc(F)cc1 [Example 79, 8-[(2,6-difluorobenzyl)oxy]-N-{2-[(4-fluoro-phenyl)amino]ethyl}-2-methylimidazo[1,2-a]-pyridine-3-carboxamide]
0.10 µM | [2H]C([2H])(Oc1cccn2c(C(=O)NC(CN)c3ccc(F)c(F)c3)c(C)nc12)c1c(F)cccc1F (stereo not drawn) [Example 97, ent-N-[2-Amino-1-(3,4-difluorophenyl)ethyl]-8-{[(2,6-difluorophenyl) (^2H2)methyl]oxy}-2-methylimidazo[1,2-a]pyridine-3-carboxamide]
1.00 µM | Cc1nc2c(OCc3ccccc3F)cccn2c1C(=O)NC(CN)c1ccc(F)c(F)c1 (stereo not drawn) [Example 98, ent-N-[2-Amino-1-(3,4-difluorophenyl)ethyl]-8-[(2-fluorobenzyl)oxy]-2-methylimidazo[1,2-a]-pyridine-3-carboxamide]
1.00 µM | Cc1nc2c(OCc3cccc(F)c3F)cccn2c1C(=O)NC(CN)c1ccc(F)c(F)c1 (stereo not drawn) [Example 99, ent-N-[2-amino-1-(3,4-difluorophenyl)ethyl]-8-[(2,3-difluorobenzyl)oxy]-2-methylimidazo[1,2-a]pyridine-3-carboxamide]
0.30 µM | Cc1nc2c(OCc3c(F)ccc(F)c3F)cccn2c1C(=O)NC(CN)c1ccc(F)c(F)c1 (stereo not drawn) [Example 100, ent-N-[2-amino-1-(3,4-difluorophenyl)ethyl]-2-methyl-8-[(2,3,6-trifluorobenzyl)oxy] imidazo[1,2-a]pyridine-3-carboxamide]
1.00 µM | Cc1nc2c(OCc3c(F)cc(F)cc3F)cccn2c1C(=O)NC(CN)c1ccc(F)c(F)c1 (stereo not drawn) [Example 101, ent-N-[2-amino-1-(3,4-difluorophenyl)ethyl]-2-methyl-8-[(2,4,6-trifluorobenzyl)oxy] imidazo[1,2-a]pyridine-3-carboxamide]
1.00 µM | Cc1nc2c(OCc3c(F)cccc3Cl)cccn2c1C(=O)NC(CN)c1ccc(F)c(F)c1 (stereo not drawn) [Example 102, ent-N-[2-amino-1-(3,4-difluorophenyl)ethyl]-8-[(2-chloro-6-fluorobenzyl)oxy]-2-methylimidazo[1,2-a]pyridine-3-carboxamide]
0.30 µM | Cc1nc2c(OCc3c(F)cccc3F)cccn2c1C(=O)NC(C)[C@H](C)N (stereo partly drawn) [Example 120, N-[(3S)-3-Aminobutan-2-yl]-8-[(2,6-difluorobenzyl)oxy]-2-methylimidazo[1,2-a]pyridine-3-carboxamide]
0.30 µM | Cc1nc2c(OCc3c(F)cccc3F)cccn2c1C(=O)NC(C)[C@@H](C)N (stereo partly drawn) [Example 121, N-[(3R)-3-Aminobutan-2-yl]-8-[(2,6-difluorobenzyl)oxy]-2-methylimidazo[1,2-a]pyridine-3-carboxamide]
